Publication PMC10049079, “Simulated Microgravity Alters P-Glycoprotein Efflux Function and Expression via the Wnt/β-Catenin Signaling Pathway in Rat Intestine and Brain” (International Journal of Molecular Sciences, 2023)
Where two headings read alike, the source gives them in different places. Each block holds one molecule with its values, some of them ahead of it.

What was measured:
[1] = set-up: method as in earlier work; settings: 21 and 28 days of SMG treatment in rats; cited from earlier work
[2] = Rat brain distribution of acetaminophen (Kp brain); type: in vivo; settings: AP 1.2 g/kg oral, post-oral administration
Description: After 7 or 21 days of tail suspension, all rats were orally administered AP (1.2 g/kg). […] Rat brains were rapidly removed after perfusion with prechilled saline from rat hearts. Then, 0.1 mL of plasma from each rat was used to precipitate proteins with 300 μL of methanol. Approximately 0.1 g of the brain tissue of each rat was homogenized and ultrasonicated in 1 mL of methanol. The supernatant was removed and dried via vacuum centrifugation and reconstituted with methanol for HPLC. The brain distribution of AP was evaluated as the ratio of AP content in brain tissue (μg/g) to that in plasma (μg/mL).
(§1) HPLC was performed on a Shimadzu LC-20AT HPLC system equipped with a UV detector (Shimadzu, Kyoto, Japan). Sample separation was conducted in a C18 column (5 μm, 4.6 × 150 mm). The mobile phases were methanol (A) and water (B) (1:9, v:v), and the flow rate was 1 mL/min. The volume of each sample injected into the HPLC system was 10 μL. The column temperature was maintained at 25 °C, and the detection wavelength was 275 nm. Ferulic acid (final concentration of 100 μg/mL) was used as an IS.

[3] = cited from earlier work
rat ileum = assay: Rat single-pass intestinal perfusion (SPIP) of acetaminophen; type: in vivo; settings: for Ka / Peff / Concentration: SPIP of ileum; for Concentration: perfusate 2.5 mg/mL AP
Description: At 1 h post-oral administration, all rats were anesthetized with urethane (1.75 g/kg) and placed in a supine position. Approximately 10 cm of ileum was separated from the intestinal segments. Tubes were carefully inserted at both ends of this segment and ligated with a sterile surgical line. The segment was rinsed with 37 °C Krebs–Ringer’s (KR) solution, balanced with KR solution (containing 2.5 mg/mL AP) at a flow rate of 0.2 mL/min for 15 min, and continuously perfused with KR solution (containing 2.5 mg/mL AP). The flow rate was set as 0.2 mL/min. The outflow perfusate was collected in a pre-weighed tube, which was changed quickly every 15 min and weighed. Six tubes of this fluid were collected for each rat. The perfusion solution and outflow perfusate were diluted in methanol–water (1:9, v:v) and analyzed using HPLC.
as §1

[4] = tested on: Wnt/β-catenin signaling pathway; assay: Western-Blot of Wnt/β-catenin pathway proteins and P-gp in Caco-2 cells treated with FzM1.8; type: cell-based, human
Description: Caco-2 cells were purchased from the Chinese Academy of Sciences (Shanghai, China) and maintained in MEM/EBSS medium (Hyclone, UT, USA) supplemented with 10% fetal bovine serum (Sofar, Beijing, China), 1% penicillin–streptomycin liquid (Solarbio, Beijing, China), and 1% nonessential amino acids (Gibco, New York, NY, USA) in a humidified 5% CO2 atmosphere at 37 °C. The Caco-2 cells were seeded in a T-12.5 flask (2 × 10^4 cells/cm^2) and cultured for 21 days under normal gravity. The T-12.5 flask was filled with culture medium while preventing bubble formation and then exposed to SMG using random speed 3D clinostat (National Space Science Center, Beijing, China) for 12, 24, 48, and 72 h. The Caco-2 cells in the CON group were cultured under normal gravity in the same CO2 incubator.
(§2) FzM1.8 and IWP-O1 (Wnt/β-catenin signaling pathway-specific agonist and inhibitor, respectively) were dissolved in dimethyl sulfoxide (DMSO) and diluted with culture medium to obtain the desired concentrations. The final concentration of DMSO was 0.1%. FzM1.8 (2 μM) was added to the Caco-2 cells in the CON + FzM1.8 and SMG + FzM1.8 groups. IWP-O1 (1 nM) was added to the hCMEC/D3 cells in the CON + IWPO-1 and SMG + IWPO-1 groups. The cells in the SMG, SMG + FzM1.8, or SMG + IWPO-1 group were then exposed to SMG for 48 h.
(§3) Total proteins in the rat ileum mucosa and brain and Caco-2 and hCMEC/D3 cells were extracted using radio immunoprecipitation assay buffer containing protease inhibitors and protein phosphatase inhibitors. The supernatant was collected after centrifugation (12,000× g, 4 °C, and 10 min). The protein concentration was tested using Coomassie brilliant blue staining. The supernatant was mixed with 4× protein loading buffer containing dithiothreitol (Solarbio, Beijing, China) and […] in a boiling water bath for 10 min. […] The gray value of each band was collected using Image Lab^TM Software (version 3.0, Bio-Rad, Hercules, CA, USA), and the relative expression levels of proteins were expressed as the ratio of the gray value of the target band to the total proteins in the same lane.

[5] = tested on: Wnt/β-catenin signaling pathway; assay: Western-Blot of Wnt/β-catenin pathway proteins and P-gp in hCMEC/D3 cells treated with IWP-O1; type: cell-based, human
Description: The hCMEC/D3 cells were purchased from iCell Bioscience Inc. (Shanghai, China) and cultured in RPMI 1640 medium containing 1% penicillin–streptomycin liquid (Solarbio, Beijing, China) and 10% fetal bovine serum (Tianhang, Zhejiang, China) in the same environment as that of Caco-2 cells. The hCMEC/D3 cells were seeded at a density of 6 × 10^4 cells/cm^2 and cultured for 2 days under normal gravity. The flasks were then filled with culture medium and exposed to SMG using random speed 3D clinostat for 24, 48, and 72 h. The hCMEC/D3 cells in the CON group were cultured under normal gravity in the same CO2 incubator.
as §2, §3

P-gp [6] = assay: Intracellular Rho123 fluorescence intensity in hCMEC/D3 cells (P-gp efflux function); type: cell-based, human; settings: Rho123 2 μM for 0.5 h
Description: The cells were then washed with phosphate buffer saline (PBS) solution five times (2 mL each time) and treated with 2 mL of 0.1% Triton X-100 for 15 min. The cell solution was transferred to a black 96-well plate (Corning, NY, USA) with six wells in each group and 200 μL in each well after brief centrifugation. The fluorescence intensity of each well was detected using a microplate reader (BioTek, Thorold, ON, Canada). The excitation/emission wavelength of Rho123 was 485/535 nm. After 24, 48, or 72 h of SMG treatment, the hCMEC/D3 cells were treated with 2 mL of medium containing Rho123 (2 μM) for 0.5 h. Subsequent operations were performed in the same way as for Caco-2 cells.

P-gp [7] = assay: Ratio of Rho123 concentration in rat brain and blood (P-gp efflux function in rat brain); type: in vivo; settings: Rho123 0.5 mg/kg tail vein, 15 min post-injection
Description: After 45 min, the tail veins of all rats were injected with Rho123 (0.5 mg/kg, Solarbio, Beijing, China). At 15 min post-injection, all rats were anesthetized with chloral hydrate (350 mg/kg), and the blood was collected from the heart. After being subjected to transcardiac perfusion using the stroke-physiological saline solution from the heart, the brain samples of all rats were collected. In summary, 0.1 g of brain samples were homogenized with 0.4 mL of normal saline to obtain brain homogenate. Blank plasma and brain samples were collected from rats without a Rho123 injection and used to prepare Rho123 standard curve samples. The concentration of Rho123 in plasma and brain homogenate from all rats was detected by fluorescence intensity (λ excitation/λ emission = 485/535) using a microplate reader (BioTek, Thorold, ON, Canada). The Kp brain of Rho123 was used to evaluate P-gp efflux function.

[8] = 7 days CON + Ver (30 mg/kg oral) rats
[9] = 21 days CON + Ver (30 mg/kg oral) rats

Increase of brain-to-plasma concentration ratio (Kp brain) ([2]; 7 days SMG vs CON): approximately 22.0%
Increase of brain-to-plasma concentration ratio (Kp brain) ([2]; 21 days SMG vs CON): 40.7%
Ka (rat ileum; [8]): 8.93 ± 0.37 * 10^−2 min^−1
Peff (rat ileum; [8]): 10.77 ± 0.61 * 10^−3 cm/min
Concentration (rat ileum; [8]): 1516 ± 52 µg/mL
Ka (rat ileum; 7 days CON rats): 7.75 ± 0.11 10^−2 min^−1
Peff (rat ileum; 7 days CON rats): 8.86 ± 0.16 10^−3 cm/min
Concentration (rat ileum; 7 days CON rats): 1684 ± 15 µg/mL
Ka (rat ileum; 7 days SMG rats): 8.55 ± 0.21 ** 10^−2 min^−1
Peff (rat ileum; 7 days SMG rats): 10.11 ± 0.33 ** 10^−3 cm/min
Concentration (rat ileum; 7 days SMG rats): 1571 ± 29 µg/mL
Increase of Ka in rat ileum (rat ileum; 7 days SMG vs CON): 10.3%
Increase of Peff in rat ileum (rat ileum; 7 days SMG vs CON): 14.1%
Ka (rat ileum; [9]): 7.44 ± 0.18 ** 10^−2 min^−1
Peff (rat ileum; [9]): 8.41 ± 0.25 ** 10^−3 cm/min
Concentration (rat ileum; [9]): 1727 ± 25 µg/mL
Ka (rat ileum; 21 days CON rats): 5.66 ± 0.19 10^−2 min^−1
Peff (rat ileum; 21 days CON rats): 6.01 ± 0.23 10^−3 cm/min
Concentration (rat ileum; 21 days CON rats): 1965 ± 33 µg/mL
Ka (rat ileum; 21 days SMG rats): 8.76 ± 0.47 ** 10^−2 min^−1
Peff (rat ileum; 21 days SMG rats): 10.47 ± 0.76 ** 10^−3 cm/min
Concentration (rat ileum; 21 days SMG rats): 1540 ± 66 µg/mL
Increase of Ka in rat ileum (rat ileum; 21 days SMG vs CON): 54.8%
Increase of Peff in rat ileum (rat ileum; 21 days SMG vs CON): 74.2%
Compound: CC(=O)Nc1ccc(O)cc1 [AP, acetaminophen]
Absorption under SMG [1]: promoted
Absorption under SMG ([3]; 80 days of SMG treatment in humans): promoted
Absorption in astronauts ([3]; two astronauts, mission day 2 compared with before the flight): increased

Compound: O=C(Nc1cc(O)cc(C(=O)O)c1)Nc1ccc2ccccc2c1 [FzM1.8]
P-gp expression under SMG (Western-Blot) ([4]; 2 μM before 48 h SMG, vs SMG group): up-regulate
P-gp expression (Western-Blot) ([4]; 2 μM, 48 h, vs CON group): increased
Wnt/β-catenin signaling pathway (Western-Blot) ([4]; 2 μM, 48 h, vs CON group): activated

Compound: O=C(Cn1nnc(-c2ccncc2)c1-c1ccccc1)Nc1ccc(-c2ccccc2)cn1 [IWP-O1]
P-gp expression under SMG (Western-Blot) ([5]; 1 nM before 48 h SMG, vs SMG group): down-regulate
P-gp expression (Western-Blot) ([5]; 1 nM, 48 h, vs CON group): decreased
Wnt/β-catenin signaling pathway (Western-Blot) ([5]; 1 nM, 48 h, vs CON group): inhibited

Increase in fluorescence intensity of intracellular Rho123 (P-gp [6]; 48 h SMG vs CON): 13.4%
Increase in fluorescence intensity of intracellular Rho123 (P-gp [6]; 72 h SMG vs CON): 16.7%
Increase of ratio of Rho123 concentration in rat brain to that in the blood (P-gp [7]; 7 days SMG vs CON): 40.5%
Increase of ratio of Rho123 concentration in rat brain to that in the blood (P-gp [7]; 21 days SMG vs CON): 173.8%
Compound: COC(=O)c1ccccc1-c1c2ccc(=N)cc-2oc2cc(N)ccc12 [Rho123, rhodamine 123]

Compound: CC(C)Cc1ccc(C(C)C(=O)O)cc1 (stereo not drawn) [ibuprofen]
Absorption in humans under SMG ([3]; in vivo, po): promoted

Compound: CC(CN1c2ccccc2Sc2ccccc21)N(C)C (stereo not drawn) [promethazine]
Absorption in humans under SMG ([3]; oral P-gp substrate drugs, humans under SMG): promoted
